Several values for one entry are separate records, joined by “and”; a condition that tells them apart may be missing. Equal entries are not always repeated. Where two headings read alike, the source gives them in different places. Where a SMILES comes first, the peptide text is derived from it.
Legend:
HLA-B08.01 = HLA-B08.01 (Homo sapiens, UniProt P01889, A93T/A95T/D138N/E176V/E187T/K202T/Q94N/R180D/S35A/V36M/Y33D/Y91F); assay: Class I MHC peptide binding affinity (displacement of radiolabeled reference peptide)
How it was run: (§1)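 Displacement format in which varying amounts of peptide compete for 2 days with a radiolabeled reference ligand prebound to class I MHC, residual complex-associated label being measured after gel-filtration separation.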

HLA-A02.01 [1] = molecular target: HLA-A02.01 (Homo sapiens, UniProt P04439, D140Y/D185E/D98H/E176V/E277Q/G131W/G231S/I119V/I121R/I166T/I218V/L300P/L318F/N151K/N90K/P208A/P217A/Q86G/Q94H/R138H/R169H/T345S); assay: as above; settings: (nM)), allele A02.01
How it was run: as §1

HLA-A24.02 [2] = assay: Class I MHC peptide binding stability (pMHC-I dissociation, 125I-labeled light chain); parameters: species or system human; settings: allele A24.02
HLA-A24.02 [3] = assay: Class I MHC peptide binding affinity (displacement of radiolabeled reference peptide); parameters: species or system human; settings: allele A24.02; read-out: Observed Affinity (IC50; (nM))
HLA-A02.01 [4] = molecular target: T1, HLA-A02.01 (Homo sapiens, UniProt P04439, D140Y/D185E/D98H/E176V/E277Q/G131W/G231S/I119V/I121R/I166T/I218V/N151K/N90K/P208A/P217A/Q86G/Q94H/R138H/R169H); assay: Class I MHC peptide binding stability (pMHC-I dissociation, 125I-labeled light chain); settings: allele A02.01
T1 construct: made in house; host or cells: E. coli

HLA-B07.02 [5] = molecular target: T2, HLA-B07.02 (Homo sapiens, UniProt P01889); assay: as above; parameters: made in house; host or cells: E. coli; settings: Allele B07.02
HLA-B07.02 [6] = molecular target: T2, HLA-B07.02; assay: Class I MHC peptide binding affinity (displacement of radiolabeled reference peptide); settings: Allele B07.02; read-out: Observed Affinity (IC50; (nM))
[7] = read-out: Observed Affinity (IC50

Compound | IC50 (HLA-B08.01) | IC50 (HLA-A02.01 [1]; [7]) | Stability (T1/2 (h)) (HLA-A02.01 [4]) | Stability (T1/2 (h)) (HLA-B07.02 [5]) | further results
CC(C)C[C@H](NC(=O)[C@@H]1CCCN1C(=O)[C@@H]1CCCN1C(=O)[C@@H](NC(=O)[C@H](CO)NC(=O)[C@H](CC(C)C)NC(=O)[C@H](CC(C)C)NC(=O)[C@H](CCC(=O)O)NC(=O)[C@@H](N)Cc1ccccc1)[C@@H](C)O)C(=O)O (H-FELLSTPPL-OH; N-terminus and C-terminus assumed) | 3.18 µM |  |  |  | IC50 (HLA-A02.01 [1]; Observed Affinity (IC50): 225 nM
CC[C@H](C)[C@H](NC(=O)[C@H](CO)NC(=O)[C@H](Cc1c[nH]c2ccccc12)NC(=O)[C@H](Cc1c[nH]cn1)NC(=O)[C@H](C)NC(=O)[C@@H]1CCCN1C(=O)[C@H](CCSC)NC(=O)[C@H](CC(C)C)NC(=O)[C@@H](N)CO)C(=O)O |  | 48 nM | 5 h |  | Stability (T1/2 (h)) (HLA-A24.02 [2]): 0.4 h; IC50 (HLA-A24.02 [3]): 633 nM
C[C@H](NC(=O)[C@H](CO)NC(=O)[C@H](C)NC(=O)[C@@H]1CCCN1C(=O)[C@H](C)NC(=O)[C@@H]1CCCN1C(=O)[C@H](CCCNC(=N)N)NC(=O)[C@@H]1CCCN1C(=O)[C@@H](N)Cc1c[nH]cn1)C(=O)O |  |  |  | 4.9 h | 
CC[C@H](C)[C@H](NC(=O)[C@@H](NC(=O)[C@H](CC(C)C)NC(=O)[C@@H](NC(=O)[C@@H]1CCCN1C(=O)[C@H](CCCNC(=N)N)NC(=O)[C@H](Cc1c[nH]c2ccccc12)NC(=O)[C@H](CC(N)=O)NC(=O)[C@@H](N)CCSC)[C@@H](C)CC)[C@@H](C)O)C(=O)O (H-MNWRPILTI-OH; N-terminus and C-terminus assumed) |  | 516 nM | 3.8 h |  | Stability (T1/2 (h)) (HLA-A24.02 [2]): 0.2 h; IC50 (HLA-A24.02 [3]): 6980 nM
CC(C)C[C@H](NC(=O)[C@H](CC(=O)O)NC(=O)[C@H](CO)NC(=O)[C@H](CCC(N)=O)NC(=O)[C@H](CCC(N)=O)NC(=O)[C@H](CCC(N)=O)NC(=O)[C@H](CCC(N)=O)NC(=O)[C@H](CCC(N)=O)NC(=O)[C@@H](N)Cc1ccc(O)cc1)C(=O)O (H-YQQQQQSDL-OH; N-terminus and C-terminus assumed) | 18.9 µM |  | 0.4 h |  | IC50 (HLA-A02.01 [1]; Observed Affinity (IC50): 799 nM
CC(C)C[C@H](NC(=O)[C@H](C)N)C(=O)N[C@@H](CO)C(=O)N[C@@H](C)C(=O)N[C@@H](CO)C(=O)N[C@@H](CC(N)=O)C(=O)N[C@@H](CO)C(=O)N[C@@H](CS)C(=O)N[C@@H](Cc1ccccc1)C(=O)O (H-ALSASNSCF-OH; N-terminus and C-terminus assumed) |  | 728 nM | 0.3 h |  | IC50 (HLA-B07.02 [6]): 684 nM; Stability (T1/2 (h)) (HLA-A24.02 [2]): 0.2 h; IC50 (HLA-A24.02 [3]): 16300 nM
CC(C)C[C@H](N)C(=O)N1CCC[C@H]1C(=O)N[C@@H](CCCNC(=N)N)C(=O)N[C@@H](CCCCN)C(=O)N1CCC[C@H]1C(=O)N[C@H](C(=O)N[C@@H](CCCNC(=N)N)C(=O)N[C@@H](C)C(=O)N[C@@H](C)C(=O)N[C@H](C(=O)O)[C@@H](C)O)[C@@H](C)O (H-LPRKPTRAAT-OH; N-terminus and C-terminus assumed) |  |  |  | 3.7 h | IC50 (HLA-B07.02 [6]): 3 nM
CC(C)C[C@H](NC(=O)[C@H](C)NC(=O)[C@@H](NC(=O)[C@H](CCCNC(=N)N)NC(=O)[C@H](CO)NC(=O)[C@H](CC(=O)O)NC(=O)[C@H](CO)NC(=O)[C@H](CC(C)C)NC(=O)[C@@H](N)CCCCN)[C@@H](C)O)C(=O)O [KLSDSRTAL] |  |  | 2.8 h | 6.8 h | 
CC(C)C[C@H](N)C(=O)N[C@@H](C)C(=O)N[C@H](C(=O)N[C@@H](CCC(=O)O)C(=O)N[C@@H](CCCCN)C(=O)N[C@@H](CO)C(=O)N[C@@H](CCCNC(=N)N)C(=O)N[C@@H](Cc1c[nH]c2ccccc12)C(=O)N[C@@H](CO)C(=O)NCC(=O)O)[C@@H](C)O (H-LATEKSRWSG-OH; N-terminus and C-terminus assumed) | 46.6 µM |  |  |  | IC50 (HLA-A02.01 [1]; Observed Affinity (IC50): 23300 nM
CC[C@H](C)[C@H](NC(=O)[C@H](Cc1ccccc1)NC(=O)[C@H](CCCNC(=N)N)NC(=O)[C@@H]1CCCN1C(=O)[C@H](CC(C)C)NC(=O)[C@@H](N)CO)C(=O)N[C@@H](CC(C)C)C(=O)N[C@@H](CCSC)C(=O)N[C@@H](CCC(=O)O)C(=O)N[C@@H](CC(C)C)C(=O)O |  | 26 nM | 0.5 h | 0.4 h | Stability (T1/2 (h)) (HLA-A24.02 [2]): 0.2 h; IC50 (HLA-A24.02 [3]): 2770 nM
CC(C)C[C@H](N)C(=O)N[C@@H](C)C(=O)N[C@H](C(=O)N[C@@H](CCC(=O)O)C(=O)N[C@@H](CCCCN)C(=O)N[C@@H](CO)C(=O)N[C@@H](CCCNC(=N)N)C(=O)N[C@@H](Cc1c[nH]c2ccccc12)C(=O)N[C@@H](CO)C(=O)O)[C@@H](C)O (H-LATEKSRWS-OH; N-terminus and C-terminus assumed) | 37 µM |  |  |  | IC50 (HLA-A02.01 [1]; Observed Affinity (IC50): 61000 nM
CC[C@H](C)[C@H](NC(=O)[C@H](CC(N)=O)NC(=O)[C@H](CCSC)NC(=O)[C@H](Cc1c[nH]cn1)NC(=O)[C@H](CC(N)=O)NC(=O)CNC(=O)[C@H](CC(C)C)NC(=O)[C@@H](N)Cc1ccc(O)cc1)C(=O)N[C@@H](C)C(=O)O (H-YLGNHMNIA-OH; N-terminus and C-terminus assumed) | 0.872 µM |  | 0.6 h |  | IC50 (HLA-A02.01 [1]; Observed Affinity (IC50): 117 nM
CC(C)C[C@H](NC(=O)[C@H](CC(C)C)NC(=O)[C@H](CC(C)C)NC(=O)CNC(=O)[C@H](Cc1ccc(O)cc1)NC(=O)[C@H](CC(C)C)NC(=O)[C@@H]1CCCN1C(=O)[C@@H](NC(=O)[C@@H](N)C(C)C)C(C)C)C(=O)O |  | 1040 nM | 0.6 h |  | Stability (T1/2 (h)) (HLA-A24.02 [2]): 0.8 h; IC50 (HLA-A24.02 [3]): 658 nM
CC[C@H](C)[C@H](NC(=O)[C@H](CCCCN)NC(=O)[C@H](C)NC(=O)[C@@H](NC(=O)[C@@H](N)CCCNC(=N)N)C(C)C)C(=O)N[C@@H](C)C(=O)N[C@@H](CC(=O)O)C(=O)N[C@@H](Cc1ccccc1)C(=O)NCC(=O)N[C@@H](CCSC)C(=O)O (H-RVAKIADFGM-OH; N-terminus and C-terminus assumed) |  | 125 nM | 0.5 h | 0.2 h | IC50 (HLA-B07.02 [6]): 9720 nM
CSCC[C@H](NC(=O)[C@H](CC(C)C)NC(=O)[C@@H](N)CCCCN)C(=O)N[C@@H](CC(C)C)C(=O)N[C@@H](CC(C)C)C(=O)N[C@@H](CCCNC(=N)N)C(=O)N[C@@H](CC(C)C)C(=O)N[C@@H](CC(N)=O)C(=O)N[C@@H](CC(C)C)C(=O)O |  | 17 nM and 2.6 nM | 16.9 h | 1.5 h | 
CC(C)C[C@H](N)C(=O)N1CCC[C@H]1C(=O)N[C@@H](CCCNC(=N)N)C(=O)N[C@@H](CCCCN)C(=O)N1CCC[C@H]1C(=O)N[C@H](C(=O)N[C@@H](CCCNC(=N)N)C(=O)N[C@@H](C)C(=O)N[C@@H](C)C(=O)O)[C@@H](C)O |  |  |  | 5.5 h | 
CC(C)[C@H](NC(=O)[C@H](CO)NC(=O)[C@@H](NC(=O)[C@@H](NC(=O)[C@H](C)NC(=O)[C@H](C)NC(=O)[C@H](CCCNC(=N)N)NC(=O)[C@@H](NC(=O)[C@@H]1CCCN1C(=O)[C@@H](N)CCCCN)[C@@H](C)O)[C@@H](C)O)C(C)C)C(=O)O (H-KPTRAATVSV-OH; N-terminus and C-terminus assumed) |  |  |  | 3 h | IC50 (HLA-B07.02 [6]): 8 nM
CC(C)C[C@H](NC(=O)[C@@H]1CCCN1C(=O)[C@H](CO)NC(=O)[C@H](CCCNC(=N)N)NC(=O)[C@H](CC(C)C)NC(=O)[C@H](CCCCN)NC(=O)[C@H](CCCCN)NC(=O)[C@@H](N)CC(C)C)C(=O)O (H-LKKLRSPL-OH; N-terminus and C-terminus assumed) | 0.0006 µM |  |  |  | 
